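Exposure lasted 48 hours, with cells grown in 96-well plates and compounds tested at five concentrations. At the GI50, growth is halved.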 The source made the active and inactive calls. Cut-off read from the data, not from the text of the source: active = GI50 up to about 1.1 µM and inactive = higher.
Experiments:
Assay in all cases: growth of human tumour cells (NCI), 48 h
OVCAR-3 = test system: OVCAR-3
OVCAR-5 = test system: OVCAR-5
SNB-19 = test system: SNB-19
NCI/ADR-RES = test system: NCI/ADR-RES
SR = test system: SR
SW-620 = test system: SW-620
NCI-H522 = test system: NCI-H522
MCF7 = test system: MCF7
786-0 = test system: 786-0
Malme-3M = test system: Malme-3M
UACC-257 = test system: UACC-257
SN12C = test system: SN12C
OVCAR-4 = test system: OVCAR-4
TK-10 = test system: TK-10
HCT-15 = test system: HCT-15
BT-549 = test system: BT-549
ACHN = test system: ACHN
U-251 = test system: U-251
RXF 393 = test system: RXF 393
MDA-N = test system: MDA-N

Row | SMILES | GI50 (OVCAR-3) | GI50 (OVCAR-5) | GI50 (SNB-19) | GI50 (NCI/ADR-RES) | GI50 (SR) | GI50 (SW-620) | GI50 (NCI-H522) | GI50 (MCF7) | GI50 (786-0) | GI50 (Malme-3M) | GI50 (UACC-257) | GI50 (SN12C) | GI50 (OVCAR-4) | GI50 (TK-10) | GI50 (HCT-15) [µM] | GI50 (BT-549) | GI50 (ACHN) | GI50 (U-251) | GI50 (RXF 393) | GI50 (MDA-N)
1 | CC(C)Sc1nncc(/C(N)=N/O)n1 | > 100 µM (inactive) | > 100 µM (inactive) | > 100 µM (inactive) | > 100 µM (inactive) | > 100 µM (inactive) | > 100 µM (inactive) | > 100 µM (inactive) | > 100 µM (inactive) | > 100 µM (inactive) | > 100 µM (inactive) | > 100 µM (inactive) | > 100 µM (inactive) | > 100 µM (inactive) | > 100 µM (inactive) | > 100 | > 100 µM (inactive) | > 100 µM (inactive) | > 100 µM (inactive) | > 100 µM (inactive) | > 100 µM (inactive)
2 | O=C1C=C(NCC(c2ccccc2)c2ccccc2)C(=O)c2ncccc21 | 0.991 µM (active) | 5.14 µM (inactive) | 2.58 µM (inactive) | 2.49 µM (inactive) | 1.63 µM (inactive) | 1.83 µM (inactive) | 1.34 µM (inactive) | 1.4 µM (inactive) | 2.88 µM (inactive) | 1.36 µM (inactive) | 0.877 µM (active) | 2.1 µM (inactive) | 1.84 µM (inactive) | 17 µM (inactive) | 0.504 | 1.06 µM (active) | 2.28 µM (inactive) | 2.05 µM (inactive) | – | 1.6 µM (inactive)
3 | CC1(C)CCC2=C(O1)/C(=N\Nc1ccc(F)cc1)c1ccccc1C2=O | 21 µM (inactive) | 35.6 µM (inactive) | 35.6 µM (inactive) | 71.8 µM (inactive) | 21.9 µM (inactive) | 25.5 µM (inactive) | 61.9 µM (inactive) | 27.3 µM (inactive) | 32.4 µM (inactive) | 30.6 µM (inactive) | 17.3 µM (inactive) | 32.3 µM (inactive) | 34.4 µM (inactive) | 38.9 µM (inactive) | 43.6 | 41.9 µM (inactive) | 38.5 µM (inactive) | 31.5 µM (inactive) | 35.2 µM (inactive) | 17.7 µM (inactive)
4 | COc1cccc(/C=C2\CCC(CN(C)C)C2=O)c1 (stereo not drawn) | 5.04 µM (inactive) | 12.1 µM (inactive) | 13.5 µM (inactive) | 2.42 µM (inactive) | 1.69 µM (inactive) | 2.21 µM (inactive) | 2.56 µM (inactive) | 2.25 µM (inactive) | 3.5 µM (inactive) | 5.81 µM (inactive) | 3.85 µM (inactive) | 5.71 µM (inactive) | 9.82 µM (inactive) | 10.2 µM (inactive) | 2.58 | 3.91 µM (inactive) | 11.8 µM (inactive) | 12.3 µM (inactive) | 6.07 µM (inactive) | 4.73 µM (inactive)
5 | C=C(C)CNC(=S)N(N)c1ccc2ccccc2c1 | 88.5 µM (inactive) | 27.7 µM (inactive) | > 100 µM (inactive) | 78 µM (inactive) | > 100 µM (inactive) | > 100 µM (inactive) | 46.6 µM (inactive) | 26.5 µM (inactive) | > 100 µM (inactive) | > 100 µM (inactive) | > 100 µM (inactive) | > 100 µM (inactive) | > 100 µM (inactive) | 23.6 µM (inactive) | 5.01 | > 100 µM (inactive) | 34.5 µM (inactive) | > 100 µM (inactive) | > 100 µM (inactive) | > 100 µM (inactive)
6 | CCOc1ccc(N/C(Cl)=C(Cl)\C(=C(\Nc2ccc(OCC)cc2)n2nnc3ccccc32)[N+](=O)[O-])cc1 | 4.12 µM (inactive) | 9.44 µM (inactive) | 17.4 µM (inactive) | 15.2 µM (inactive) | 1.45 µM (inactive) | 2.32 µM (inactive) | 1.08 µM (active) | 5.89 µM (inactive) | 4.02 µM (inactive) | 2.32 µM (inactive) | 8.3 µM (inactive) | 7.94 µM (inactive) | 10.3 µM (inactive) | 4.49 µM (inactive) | 1.91 | 3.85 µM (inactive) | 4.03 µM (inactive) | 6.78 µM (inactive) | 2.28 µM (inactive) | 3.82 µM (inactive)
7 | O=C(NN1C(=O)c2ccccc2C1=O)c1ccccc1Nc1ccccc1C(=O)NN1C(=O)c2ccccc2C1=O | > 100 µM (inactive) | > 100 µM (inactive) | > 100 µM (inactive) | > 100 µM (inactive) | > 100 µM (inactive) | > 100 µM (inactive) | > 100 µM (inactive) | > 100 µM (inactive) | > 100 µM (inactive) | > 100 µM (inactive) | > 100 µM (inactive) | > 100 µM (inactive) | > 100 µM (inactive) | > 100 µM (inactive) | > 100 | > 100 µM (inactive) | > 100 µM (inactive) | > 100 µM (inactive) | > 100 µM (inactive) | > 100 µM (inactive)
8 | COc1cc(/C=C2\N=C(c3ccccc3)N(c3nc4cc(C)c(C)cc4s3)C2=O)ccc1O | 23.7 µM (inactive) | 40.6 µM (inactive) | 74 µM (inactive) | 42.3 µM (inactive) | 19.9 µM (inactive) | 35.5 µM (inactive) | – | 11.2 µM (inactive) | 43 µM (inactive) | – | 21.3 µM (inactive) | 25.8 µM (inactive) | 20.7 µM (inactive) | 79.4 µM (inactive) | 45.6 | 46.3 µM (inactive) | 28.3 µM (inactive) | 30.8 µM (inactive) | 20.4 µM (inactive) | 15.2 µM (inactive)
9 | Cn1c(=O)c2nc3nnc(C#N)c(N)n3c2n(C)c1=O | > 100 µM (inactive) | > 100 µM (inactive) | – | > 100 µM (inactive) | > 100 µM (inactive) | – | > 100 µM (inactive) | > 100 µM (inactive) | > 100 µM (inactive) | 25.2 µM (inactive) | – | > 100 µM (inactive) | > 100 µM (inactive) | > 100 µM (inactive) | > 100 | > 100 µM (inactive) | 44.4 µM (inactive) | > 100 µM (inactive) | 79.4 µM (inactive) | > 100 µM (inactive)
10 | CC(=O)N1c2ccccc2C2=NN(C)C(=N)SC21 (stereo not drawn) | 13.8 µM (inactive) | > 100 µM (inactive) | > 100 µM (inactive) | > 100 µM (inactive) | > 100 µM (inactive) | > 100 µM (inactive) | 67.8 µM (inactive) | > 100 µM (inactive) | > 100 µM (inactive) | 68.4 µM (inactive) | > 100 µM (inactive) | > 100 µM (inactive) | > 100 µM (inactive) | > 100 µM (inactive) | > 100 | > 100 µM (inactive) | > 100 µM (inactive) | > 100 µM (inactive) | – | > 100 µM (inactive)
11 | Cc1ccc(C2SC(=N)Nc3c2c(C)nn3C(=O)c2ccccc2O)cc1 (stereo not drawn) | > 10 µM (inactive) | > 10 µM (inactive) | > 10 µM (inactive) | > 10 µM (inactive) | > 10 µM (inactive) | > 10 µM (inactive) | – | > 10 µM (inactive) | > 10 µM (inactive) | > 10 µM (inactive) | > 10 µM (inactive) | > 10 µM (inactive) | > 10 µM (inactive) | > 10 µM (inactive) | > 10 | > 10 µM (inactive) | 6.03 µM (inactive) | 5.38 µM (inactive) | > 10 µM (inactive) | 7.14 µM (inactive)
12 | CCCCCCc1cc2cc(C(=O)Nc3cccc(F)c3)c(=N)oc2cc1O | 4.19 µM (inactive) | 3.6 µM (inactive) | 3.55 µM (inactive) | 2.35 µM (inactive) | 2.17 µM (inactive) | 3.39 µM (inactive) | 1.59 µM (inactive) | 3.19 µM (inactive) | 3.28 µM (inactive) | 2.31 µM (inactive) | 2.99 µM (inactive) | – | 2.78 µM (inactive) | – | 2.31 | 2.63 µM (inactive) | 3.16 µM (inactive) | 1.97 µM (inactive) | – | 3.14 µM (inactive)
13 | O=S(=O)(O)c1cccc2cccc(/N=N/c3c(O)ccc4ccccc34)c12 | > 100 µM (inactive) | > 100 µM (inactive) | > 100 µM (inactive) | > 100 µM (inactive) | > 100 µM (inactive) | > 100 µM (inactive) | > 100 µM (inactive) | > 100 µM (inactive) | > 100 µM (inactive) | > 100 µM (inactive) | > 100 µM (inactive) | > 100 µM (inactive) | > 100 µM (inactive) | > 100 µM (inactive) | > 100 | > 100 µM (inactive) | > 100 µM (inactive) | > 100 µM (inactive) | > 100 µM (inactive) | > 100 µM (inactive)
14 | COC1C(CO)OC(n2c3c(Cl)cccc3c3c4c(c5c6cccc(Cl)c6[nH]c5c32)C(=O)NC4=O)C(O)C1O (stereo not drawn) | 0.292 µM (active) | 0.796 µM (active) | 0.213 µM (active) | 0.444 µM (active) | 0.0282 µM (active) | 0.0849 µM (active) | 0.21 µM (active) | 0.1 µM (active) | 0.133 µM (active) | 0.223 µM (active) | 0.219 µM (active) | 0.104 µM (active) | 0.337 µM (active) | 0.47 µM (active) | 0.401 | 0.162 µM (active) | 0.113 µM (active) | 0.173 µM (active) | 0.225 µM (active) | 0.324 µM (active)
15 | Cc1cnc2nc(-c3cccc4ccccc34)cc(O)c2c1 | 0.000281 µM (active) | 0.00351 µM (active) | 0.00332 µM (active) | 0.000428 µM (active) | 0.000352 µM (active) | 0.000449 µM (active) | 0.000261 µM (active) | 0.00121 µM (active) | 0.000791 µM (active) | 0.000289 µM (active) | 0.000254 µM (active) | 0.00869 µM (active) | 16.4 µM (inactive) | – | 0.000454 | 0.0536 µM (active) | 0.00119 µM (active) | 0.000532 µM (active) | 0.000346 µM (active) | 0.000216 µM (active)
